Measurements reported in US20250339567A1, “COMPOUNDS WITH IMPROVED PHARMACOKINETICS FOR IMAGING AND THERAPY OF CANCER” (priority 2019, published 2025).
Read-outs that look alike come from different tables or passages of the source. Starred links: 1 amine or outer side, 2 acyl side, 3 side chain; linkers in the order of their positions; H or OH if unused. Non-standard residues stand in square brackets, D forms with d. Residues, ends and D or L forms follow the SMILES beside them. *: point of attachment. X4 = O=C(O)CN1CCN(CC(=O)O)CCN(CC(=O)NCc2ccc(NC(=O)COCC(=O)*)cc2)CCN(CC(=O)O)CC1; DOTAGA = O=C(O)CN1CCN(CC(=O)O)CCN(C(CCC(=O)*)C(=O)O)CCN(CC(=O)O)CC1; Benzoyl(4-SiFtBu2) = CC(C)(C)[Si](F)(c1ccc(C(=O)*)cc1)C(C)(C)C; d(γGlu) = O=C(O)[C@@H](CCC(=O)[*:2])N[*:1]; Sta = CC(C)C[C@H](N)[C@@H](O)CC(=O)O; Bta = N[C@@H](Cc1csc2ccccc12)C(=O)O; X1 = O=C(CN1CCC(N[*:1])CC1)[*:2]; NHCH(iBu)2 = CC(C)CC(CC(C)C)N*; dOrn = NCCC[C@@H](N)C(=O)O; dDap = NC[C@@H](N)C(=O)O; CO = O=C([*:1])[*:2]

What was measured:
GRPR = target: T1, GRPR (Homo sapiens, UniProt P30550); test: Determination of GRPR affinity (IC50), competition with [D-3-[125I]I-Tyr6]MJ9 on PC-3 cells; assay type: binding; details: for IC50 [nM], ^natLu-labeled (n = 3): Table 6, natLu-labeled
T1 construct: endogenous in cells; host or cells: PC-3 cells
Experimental: The reference ligand for IC50 studies ([D-3-[^125I]I-Tyr^6]MJ9) is prepared according to a previously published procedure. Briefly, 0.2 mg of [D-Tyr^6]MJ9 are dissolved in 20 μL Tracepur water and 280 μL TRIS buffer (25 mm TRIS HCl, 0.4 M NaCl, pH=7.9). After addition of the solution to a vial containing 150 μg Iodo-Gen® (1,3,4,6-Tetrachloro-3α,6α-diphenylglycouril, surface-bound), 5.0 μL (16 MBq) [^125I]Nal(74 TBq/mmol, 3.1 GBq/mL, 40 mM NaOH, Hartmann Analytic, Braunschweig, Germany) are added.
The GRPR-positive PC-3 cells are cultured in Dublecco modified Eagle medium/Nutrition Mixture F-12 with Glutamax-I (1:1) (Invitrigon), supplemented with 10% fetal calf serum and maintained at 37° C. in a humidified 5% CO2 atmosphere.
After removal of the culture medium, the cells are washed once with 500 μL of HBSS (Hank's balanced salt solution, Biochrom, Berlin, Germany, with addition of 1% bovine serum albumin (BSA)) and left in 200 μL HBSS (1% BSA) for 9 min at room temperature for equilibration. Next, 25 μL per well of solutions, containing either HBSS (1% BSA) as control or the respective ligand in increasing concentration (10^−10 M-10^−4 M in HBSS), are added with subsequent addition of 25 μL of [D-3-[^125I]I-Tyr^6]MJ9 (2.0 nM) in HBSS (1% BSA).
All experiments are performed in triplicate for each concentration. After 2 h incubation at room temperature, the experiment is terminated by removal of the medium and consecutive rinsing with 300 μL of HBSS. The media of both steps are combined in one fraction and represent the amount of free radiolabeled reference. Afterwards, the cells are lysed with 300 μL of 1 M NaOH for at least 15 min and united with the 300 μL NaOH of the following washing step. Quantification of bound and free radiolabeled reference is accomplished in a γ-counter.
IC50 determination for each ligand was repeated twice.

[1] = Plasma studies: metabolic stability in vitro in human plasma (radio RP-HPLC); assay type: in vitro ADME; details: Table 1C; 177Lu-labeled, 37° C., 72 ± 2 h; in % (unit assumed)
Experimental: Metabolic stability in vitro was determined applying a procedure published by Linder et al. that was slightly modified. Immediately after labeling, human (200 μL) or murine (100 μL) plasma was added and the mixture was incubated at 37° C. for 72±2 h (or 6±0.5 h). Proteins were precipitated by treatment with ice-cold EtOH (150 μL [human], 100 μL [murine]) and ice-cold MeCN (450 μL [human], 300 μL [murine]), followed by centrifugation for 20 min at 13000 rpm. The supernatants were decanted and further analyzed using radio RP-HPLC. […]

[2] = n-Octanol-PBS distribution coefficient, log D7.4; assay type: physicochemical; details: for log D7.4 (n = 6), ^177Lu-labeled: Table 6, 177Lu-labeled Bombesin-SiFA compounds
Experimental: Approximately 1 MBq of the labeled tracer was dissolved in 1 mL of a 1:1 mixture (v/v) of phosphate buffered saline (PBS, pH=7.4) and n-octanol in an Eppendorf tube. After vigorous mixing of the suspension for 3 min at room temperature, the vial was centrifuged at 9000 rpm for 5 min (Biofuge 15, Heraus Sepatech, Osterode, Germany) and 200 μL aliquots of both layers were measured in a γ-counter. The experiment was repeated at least four times.

[3] = read-out: IC50 [nM] ± SD (n = 3), ^177Lu-labeled, Table 1C, GRPR affinity
[4] = [D-3-[125I]I-Tyr6]MJ9 (c = 0.2 nM), 2 h, r.t.

T1 sequence (P30550 whole entry): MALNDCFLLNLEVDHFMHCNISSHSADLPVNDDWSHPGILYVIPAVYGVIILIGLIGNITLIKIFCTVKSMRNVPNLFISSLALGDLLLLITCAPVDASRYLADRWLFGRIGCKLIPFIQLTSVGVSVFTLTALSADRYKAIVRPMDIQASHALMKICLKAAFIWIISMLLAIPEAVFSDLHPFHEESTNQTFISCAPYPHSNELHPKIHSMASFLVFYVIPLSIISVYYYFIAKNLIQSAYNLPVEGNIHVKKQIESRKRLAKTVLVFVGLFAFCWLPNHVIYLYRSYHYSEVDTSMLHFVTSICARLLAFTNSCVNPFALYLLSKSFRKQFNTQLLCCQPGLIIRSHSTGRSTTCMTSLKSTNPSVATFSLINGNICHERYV

Row | Structure (SMILES) | IC50 (GRPR; [3]) | Amount of intact tracer after incubation in human plasma for 72 ± 2 h (n = 2) [1] | IC50 [nM], ^natLu-labeled (n = 3) (GRPR; [4]) | log D7.4 (n = 6), ^177Lu-labeled [2] | also measured
1 | CC(C)CC(CC(C)C)NC(=O)[C@H](Cc1c[nH]cn1)NC(=O)CNC(=O)[C@@H](NC(=O)[C@H](C)NC(=O)[C@H](Cc1csc2ccccc12)NC(=O)[C@H](CCC(N)=O)NC(=O)[C@@H](Cc1ccccc1)NC(=O)COCC(=O)Nc1ccc(CNC(=O)CN2CCN(CC(=O)O)CCN(CC(=O)O)CCN(CC(=O)O)CC2)cc1)C(C)C [[Bta^8]NeoBOMB1] (X4-[dF]Q[Bta]AVGH-{NHCH(iBu)2}; N-terminus and C-terminus assumed) | 13 ± 3 nM | 36.2 ± 3.8 | – | – | –
2 | CC(C)C[C@H](NC(=O)C[C@H](O)[C@H](CC(C)C)NC(=O)[C@H](Cc1c[nH]cn1)NC(=O)CNC(=O)[C@@H](NC(=O)[C@H](C)NC(=O)[C@H](Cc1c[nH]c2ccccc12)NC(=O)[C@H](CCC(N)=O)NC(=O)[C@@H](Cc1ccccc1)NC(=O)CN1CCC(NC(=O)[C@@H](CN)NC(=O)[C@@H](CCCN)NC(=O)[C@@H](CC(=O)O)NC(=O)[C@@H](CC(=O)O)NC(=O)[C@@H](CNC(=O)CCC(C(=O)O)N2CCN(CC(=O)O)CCN(CC(=O)O)CCN(CC(=O)O)CC2)NC(=O)[C@@H](CNC(=O)c2ccc([Si](F)(C(C)(C)C)C(C)(C)C)cc2)NC(=O)CC[C@@H](NC(=O)N[C@H](CCC(=O)O)C(=O)O)C(=O)O)CC1)C(C)C)C(N)=O (stereo partly drawn) [GT50] ({dE-CO-d(γGlu)}-[dDap](Benzoyl(4-SiFtBu2))[dDap](DOTAGA)[dD][dD][dOrn][dDap][X1][dF]QWAVGH[Sta]L-NH2) | – | – | comparable range | −1.96 ± 0.15 | –
3 | CC(C)C[C@H](NC(=O)C[C@H](O)[C@H](CC(C)C)NC(=O)[C@H](Cc1c[nH]cn1)NC(=O)CNC(=O)[C@@H](NC(=O)[C@H](C)NC(=O)[C@H](Cc1c[nH]c2ccccc12)NC(=O)[C@H](CCC(N)=O)NC(=O)[C@@H](Cc1ccccc1)NC(=O)CN1CCC(NC(=O)[C@H](CC(=O)O)NC(=O)C(CNCCN)CNCCN)CC1)C(C)C)C(N)=O [Ligand N4-asp-MJ9] | – | – | – | – | IC50 (GRPR; IC50 [nM] ± SD (n = 3), Table 5, non-labeled N4 ligands, [D-3-[125I]I-Tyr6]MJ9 (c = 0.2 nM), 2 h, r.t.): 3.73 ± 0.78 nM; log D7.4 (n = 6), ^99mTc-labeled ([2]; 99mTc-labeled, n-octanol/PBS pH 7.4): −1.86 ± 0.03
4 | CC(C)C[C@H](NC(=O)C[C@H](O)[C@H](CC(C)C)NC(=O)[C@H](Cc1c[nH]cn1)NC(=O)CNC(=O)[C@@H](NC(=O)[C@H](C)NC(=O)[C@H](Cc1c[nH]c2ccccc12)NC(=O)[C@H](CCC(N)=O)NC(=O)[C@@H](Cc1ccccc1)NC(=O)CN1CCC(NC(=O)CN2CCC(NC(=O)[C@@H](CC(=O)O)NC(=O)[C@@H](CNC(=O)CCC(C(=O)O)N3CCN(CC(=O)O)CCN(CC(=O)O)CCN(CC(=O)O)CC3)NC(=O)[C@@H](CNC(=O)c3ccc([Si](F)(C(C)(C)C)C(C)(C)C)cc3)NC(=O)CC[C@@H](NC(=O)N[C@H](CCC(=O)O)C(=O)O)C(=O)O)CC2)CC1)C(C)C)C(N)=O (stereo partly drawn) [GT53] ({dE-CO-d(γGlu)}-[dDap](Benzoyl(4-SiFtBu2))[dDap](DOTAGA)[dD][X1][X1][dF]QWAVGH[Sta]L-NH2) | – | – | slightly increased | −1.81 ± 0.15 | –
5 | CC(C)CC(CC(C)C)NC(=O)[C@H](Cc1c[nH]cn1)NC(=O)CNC(=O)[C@@H](NC(=O)[C@H](C)NC(=O)[C@](C)(Cc1c[nH]c2ccccc12)NC(=O)[C@H](CCC(N)=O)NC(=O)[C@@H](Cc1ccccc1)NC(=O)COCC(=O)Nc1ccc(CNC(=O)CN2CCN(CC(=O)O)CCN(CC(=O)O)CCN(CC(=O)O)CC2)cc1)C(C)C [[α-Me-Trp^8]NeoBOMB1] | 6.8 ± 1.2 nM | 70.7 ± 2.8 | – | – | –
6 | CC(C)C[C@H](NC(=O)C[C@H](O)[C@H](CC(C)C)NC(=O)[C@H](Cc1c[nH]cn1)NC(=O)CNC(=O)[C@@H](NC(=O)[C@H](C)NC(=O)[C@H](Cc1c[nH]c2ccccc12)NC(=O)[C@H](CCO)NC(=O)[C@@H](Cc1ccccc1)NC(=O)CN1CCC(NC(=O)CN2CCN(CC(=O)O)CCN(CC(=O)O)CCN(CC(=O)O)CC2)CC1)C(C)C)C(N)=O [[^natGa]DOTA-[Hse^7]MJ9, metal not drawn] | – | – | – | – | IC50 (GRPR; read-out: IC50 ± SD (n = 3), Table 3, [D-3-[125I]I-Tyr6]MJ9 (c = 0.2 nM), 2 h, r.t., HBSS + 1% BSA): 12.2 ± 0.2 nM
